Laboratory results as given in US20160045505A1, “COMPOUNDS AND COMPOSITIONS FOR THE TREATMENT OF PARASITIC DISEASES” (NOVARTIS AG, priority 2013, published 2016).
Where two headings read alike, the source gives them in different places.

How the values were obtained:
[1] = tested on: Trypanosoma brucei Lister 427 strain, bloodstream form; test: Assay for proliferation of kinetoplastid parasite Trypanosoma brucei (Cell Titer Glo, 48 hours); assay type: cell-based; conditions: Trypanosoma brucei, T. brucei Lister 427 bloodstream form, read-out: T. brucei EC50
From the text: Assay for Proliferation of Kinetoplastid Parasite Trypanosoma brucei.
The proliferation is quantified by the addition of Cell Titer Glo (Promega®) a luminescent cell viability assay that measures the number of viable cells in culture based on the quantification of cellular ATP amount, which is an indicator of metabolically active cells.
The following assay illustrates the invention without in any way limiting the scope of the invention. This parasite proliferation assay measures the increase in parasite growth using an assay that measures ATP activity, Cell Titer Glo®.
Trypanosoma brucei Lister 427 strain is grown in HMI-9 Trypanosome media for T. brucei bloodstream form. 30 μl of HMI-9 media is dispensed into 384 well assay plates. 200 nl of compounds of the invention (in DMSO), including anti-trypanosome controls (Pentamidine and suramin), are then transferred into the assay plates, as well as DMSO alone to serve as a negative control for inhibition. Then 25 μl of a suspension of T. brucei culture in HMI-9 media is dispensed into the assay plates. The final concentration of parasites in culture corresponds to 1.7% of 0.5 uM ATP activity with Cell Titer Glo® in HMI-9 media. The plates are placed in a 37° C. incubator for 48 hours in an atmospheric environment containing 5% CO2. 40 μl of Cell Titer Glo® is dispensed into the plates. The plates are then read for luminescence. The percentage inhibition of 50%, EC50, is calculated for each compound.

[2] = tested on: Leishmania donovani axenic amastigote parasites; test: Leishmania donovani axenic amastigote proliferation assay (Cell TiterGlo luminescence, 2 day incubation); assay type: cell-based; conditions: Leishmania donovani
[3] = tested on: L. donovani HU3 strain in mouse peritoneal macrophages; test: Assay for proliferation of Leishmania parasites in infected mouse peritoneal macrophages (SybrGreen staining, high-content imaging, 5 days); assay type: cell-based, Leishmania donovani; conditions: Leishmania donovani, Peritoneal macrophage
[4] = tested on: Trypanosoma cruzi amastigotes (Tulahuen strain expressing Lac-Z) cultured in 3T3 fibroblast cells; test: microbe, parasite or virus in culture; assay type: cell-based; conditions: Trypanosoma cruzi, TULAHUEN, Fibroblast
[5] = read-out: L. donovani amastigotes EC50 (μM)
[6] = read-out: L. donovani Macrophage EC50 (μM)
[7] = axenic amastigotes, inhibition of proliferation, read-out: L. donovani amastigotes EC50
[8] = L. donovani in mouse peritoneal macrophages, inhibition of proliferation, read-out: L. donovani Macrophage EC50
[9] = T. cruzi amastigotes in 3T3 fibroblast cells, inhibition of proliferation, read-out: T cruzi EC50
[10] = L. donovani axenic amastigotes, read-out: L. donovani amastigotes EC50
[11] = L. donovani in mouse peritoneal macrophages, read-out: L. donovani Macrophage EC50
[12] = T. cruzi amastigotes in 3T3 fibroblast cells, read-out: T cruzi EC50

CC(C)OC(=O)Nc1ccc(F)c(-c2cn3cc(NC(=O)OC(C)C)cnc3n2)c1 [Compound 40]
EC50 ([1]; inhibition of proliferation): 185 nM

O=CNc1cnc2nc(-c3cc(NC(=O)N4CCCC4)ccc3F)cn2c1 [Compound 533, N-(4-fluoro-3-(6-formamidoimidazo[1,2-a]pyrimidin-2-yl)phenyl)pyrrolidine-1-carboxamide]
EC50 [1]: 1540 nM

Cc1nc(C)c(C(=O)Nc2ccc(F)c(-c3cn4cc(-c5ccc(CCO)cn5)cnc4n3)c2)o1 [Compound 585, N-(4-fluoro-3-(6-(5-(2-hydroxyethyl)pyridin-2-yl)imidazo[1,2-a]pyrimidin-2-yl)phenyl)-2,4-dimethyloxazole-5-carboxamide]
EC50 [1]: 414 nM

Cc1nc(C)c(C(=O)Nc2ccc(F)c(-c3cn4cc(N5CCN(C)CC5)cnc4n3)c2)o1 [Compound 565, N-(4-fluoro-3-(6-(4-methylpiperazin-1-yl)imidazo[1,2-a]pyrimidin-2-yl)phenyl)-2,4-dimethyloxazole-5-carboxamide]
EC50 [2, 5]: 12.3 µM
EC50 [3, 6]: 6.27 µM
EC50 ([4]; read-out: T cruzi EC50 (μM)): 11.2 µM

CC(C)OC(=O)Nc1cnc2nc(-c3cc(NC(=O)N4CCCC4)ccc3Cl)cn2c1 [Compound 2, propan-2-yl N-(2-{2-chloro-5-[(pyrrolidin-1-yl)carbonylamino]phenyl}imidazo[1,2-a]pyrimidin-6-yl)carbamate]
EC50 [2, 7]: 0.096 µM
EC50 [3, 8]: 0.268 µM
EC50 [4, 9]: 0.243 µM

O=C(Nc1ccc(F)c(-c2cn3cc(-c4ccccn4)cnc3n2)c1)N1CCC1 [Compound 404]
EC50 [2, 10]: 0.011 µM
EC50 [3, 11]: 0.034 µM
EC50 [4, 12]: 0.017 µM

O=C(Nc1ccc(F)c(-c2cn3cc(-c4ccc(CCN5CCOCC5)cc4)cnc3n2)c1)N1CCCC1 [Compound 352]
EC50 [2, 7]: 0.215 µM
EC50 [3, 8]: 0.061 µM
EC50 [4, 9]: 0.018 µM

CC(C)OC(=O)Nc1cnc2nc(-c3cc(NC(=O)N4CC(N(C)C(=O)OC(C)(C)C)C4)ccc3F)cn2c1 [Compound 293]
EC50 [2, 7]: > 25 µM
EC50 [3, 8]: > 38.2 µM
EC50 [4, 9]: > 16.5 µM

Cc1nc(C)c(C(=O)Nc2ccc(F)c(-c3cn4cc(N5CCC5)cnc4n3)c2)o1 [Compound 559]
EC50 [2, 10]: > 25 µM
EC50 [3, 11]: > 50 µM
EC50 [4, 12]: > 20 µM

COC(C)C(=O)Nc1ccc(Cl)c(-c2cn3cc(NC(=O)OC(C)C)cnc3n2)c1 (stereo not drawn) [Compound 54]
EC50 [2, 7]: 1.97 µM
EC50 [3, 8]: 14.5 µM
EC50 [4, 9]: 1.29 µM

Cc1nc(C)c(C(=O)Nc2ccc(F)c(-c3cn4cc(NC5=NCCN5C)cnc4n3)c2)o1 [Compound 506]
EC50 [2, 10]: > 25 µM
EC50 [3, 11]: > 25.9 µM
EC50 [4, 12]: > 18.2 µM

O=C(Nc1ccc(F)c(-c2cn3cc(-c4ccccc4)cnc3n2)c1)c1ccc(F)o1 [Compound 576, 5-fluoro-N-(4-fluoro-3-(6-phenylimidazo[1,2-a]pyrimidin-2-yl)phenyl)furan-2-carboxamide]
EC50 [2, 10]: 0.526 µM
EC50 [3, 11]: 0.807 µM
EC50 [4, 12]: 0.05 µM

CC(C)OC(=O)Nc1cnc2nc(-c3cc(Nc4cccnc4)ccc3F)cn2c1 [Compound 486]
EC50 [2, 10]: 16.1 µM
EC50 [3, 11]: > 50 µM
EC50 [4, 12]: 1.45 µM

CC(C)OC(=O)Nc1cnc2nc(-c3cc(NC(=O)NC4CC4)ccc3Cl)cn2c1 [Compound 285]
EC50 [2, 7]: 11.7 µM
EC50 [3, 8]: 16.1 µM
EC50 [4, 9]: 5.02 µM

Cc1nc(C)c(C(=O)Nc2ccc(F)c(-c3cn4cc(-c5cccc(N6CCNCC6)n5)cnc4n3)c2)o1 [Compound 572]
EC50 [2, 10]: 1.94 µM
EC50 [3, 11]: 2.36 µM
EC50 [4, 12]: 0.394 µM

Cc1nc(C)c(C(=O)Nc2ccc(Cl)c(-c3cn4cc(N5CCOC5=O)cnc4n3)c2)o1 [Compound 520, N-(4-chloro-3-(6-(2-oxooxazolidin-3-yl)imidazo[1,2-a]pyrimidin-2-yl)phenyl)-2,4-dimethyloxazole-5-carboxamide]
EC50 [2, 10]: > 25 µM
EC50 [3, 11]: > 50 µM
EC50 [4, 12]: > 20 µM

CC(C)OC(=O)Nc1cnc2nc(-c3cc(NC(=O)N4CCC[C@H]4C(N)=O)ccc3Cl)cn2c1 [Compound 262]
EC50 [2, 7]: > 25 µM
EC50 [3, 8]: > 50 µM
EC50 [4, 9]: > 20 µM

Cc1nc(C)c(C(=O)Nc2ccc(F)c(-c3cn4cc(C5CCOCC5)cnc4n3)c2)o1 [Compound 421]
EC50 [2, 10]: 0.127 µM
EC50 [3, 11]: 0.337 µM
EC50 [4, 12]: 0.17 µM

Cc1nc(C)c(C(=O)Nc2ccc(F)c(-c3cn4cc(-c5ccccc5)cnc4n3)c2)o1 [Compound 333]
EC50 [2, 7]: 0.088 µM
EC50 [3, 8]: 0.087 µM
EC50 [4, 9]: 0.016 µM

CC(=O)Nc1cnc2nc(-c3cc(NC(=O)c4oc(C)nc4C)ccc3F)cn2c1 [Compound 525, N-(3-(6-acetamidoimidazo[1,2-a]pyrimidin-2-yl)-4-fluorophenyl)-2,4-dimethyloxazole-5-carboxamide]
EC50 [2, 5]: 5.35 µM
EC50 [3, 6]: 21.1 µM
EC50 ([4]; read-out: T cruzi EC50 (μM)): > 20 µM

CC(C)(CO)c1nc(Nc2ccc(F)c(-c3cn4cc(C5CC5)cnc4n3)c2)no1 [Compound 596]
EC50 [2, 10]: > 21.2 µM
EC50 [3, 11]: 0.075 µM
EC50 [4, 12]: 3.74 µM

CC(C)OC(=O)Nc1cnc2nc(-c3cc(NC(=O)c4ccc(F)o4)ccc3F)cn2c1 [Compound 63]
EC50 [2, 7]: 0.089 µM
EC50 [3, 8]: 0.222 µM
EC50 [4, 9]: 0.124 µM

CNc1ccc(-c2cnc3nc(-c4cc(NC(=O)N5CCCC5)ccc4F)cn3c2)cc1 [Compound 351]
EC50 [2, 7]: 0.071 µM
EC50 [3, 8]: 0.13 µM
EC50 [4, 9]: 0.095 µM

CC(C)OC(=O)Nc1cnc2nc(-c3cc(NC(=O)N4CCCC4C)ccc3Cl)cn2c1 (stereo not drawn) [Compound 272]
EC50 [2, 7]: 1.69 µM
EC50 [3, 8]: 3.37 µM
EC50 [4, 9]: 1.29 µM

O=C(Nc1ccc(F)c(-c2cn3cc(-c4ccccn4)cnc3n2)c1)N1CC(F)C1 [Compound 400]
EC50 [2, 10]: 0.045 µM
EC50 [3, 11]: 0.203 µM
EC50 [4, 12]: 0.199 µM

Cc1nc(C)c(C(=O)Nc2ccc(F)c(-c3cn4cc(C5=CCN(C(=O)OC(C)(C)C)CC5)cnc4n3)c2)o1 [Compound 347]
EC50 [2, 7]: 0.154 µM
EC50 [3, 8]: 0.151 µM
EC50 [4, 9]: 0.099 µM

CC(C)OC(=O)Nc1cnc2nc(-c3cc(NC(=O)c4ccc(C#N)o4)ccc3Cl)cn2c1 [Compound 48]
EC50 [2, 7]: 0.082 µM
EC50 [3, 8]: 0.139 µM
EC50 [4, 9]: 0.157 µM

COc1cnc2nc(-c3cc(NC(=O)N4CCCC4)ccc3F)cn2c1 [Compound 536, N-(4-fluoro-3-(6-methoxyimidazo[1,2-a]pyrimidin-2-yl)phenyl)pyrrolidine-1-carboxamide]
EC50 [2, 10]: 0.348 µM
EC50 [3, 11]: 2 µM
EC50 [4, 12]: 0.153 µM

CC(C)OC(=O)Nc1cnc2nc(-c3cc(NC(=O)c4ccc(F)s4)ccc3F)cn2c1 [Compound 67]
EC50 [2, 7]: 0.677 µM
EC50 [3, 8]: 1.13 µM
EC50 [4, 9]: 0.136 µM

CC(C)OC(=O)Nc1cnc2nc(-c3cc(NC(=O)C(C)OCC(F)(F)F)ccc3Cl)cn2c1 (stereo not drawn) [Compound 58]
EC50 [2, 7]: 14.2 µM
EC50 [3, 8]: 10.5 µM
EC50 [4, 9]: 4.53 µM

Cc1nc(C)c(C(=O)Nc2ccc(F)c(-c3cn4cc(NC(=O)C5CCCCO5)cnc4n3)c2)o1 (stereo not drawn) [Compound 151]
EC50 [2, 7]: 0.136 µM
EC50 [3, 8]: 0.429 µM
EC50 [4, 9]: 0.59 µM

CC(C)OC(=O)Nc1cnc2nc(-c3cc(NC(=O)c4cnc(Cl)s4)ccc3Cl)cn2c1 [Compound 51]
EC50 [2, 7]: 3.8 µM
EC50 [3, 8]: 9.33 µM
EC50 [4, 9]: 1.49 µM

CC(C)OC(=O)Nc1cnc2nc(-c3cc(NC(=O)N4CCC(=O)C4)ccc3Cl)cn2c1 [Compound 281]
EC50 [2, 7]: 8.7 µM
EC50 [3, 8]: > 37.1 µM
EC50 [4, 9]: > 20 µM

Cc1nc(C)c(C(=O)Nc2ccc(F)c(-c3cn4cc(N5CCOCC5)cnc4n3)c2)o1 [Compound 490]
EC50 [2, 10]: 0.134 µM
EC50 [3, 11]: 0.383 µM
EC50 [4, 12]: 0.157 µM

NNC(=O)Nc1cnc2nc(-c3cc(NC(=O)N4CCCC4)ccc3F)cn2c1 [Compound 521, N-(4-fluoro-3-(6-(hydrazinecarboxamido)imidazo[1,2-a]pyrimidin-2-yl)phenyl)pyrrolidine-1-carboxamide]
EC50 [2, 10]: 4.68 µM
EC50 [3, 11]: 38.2 µM
EC50 [4, 12]: 9.23 µM

COCCOC(=O)Nc1ccc(F)c(-c2cn3cc(NC(=O)OC(C)C)cnc3n2)c1 [Compound 303]
EC50 [2, 7]: > 20.3 µM
EC50 [3, 8]: > 50 µM
EC50 [4, 9]: 17.7 µM

CC(C)OC(=O)Nc1cnc2nc(-c3cc(NC(=O)[C@@H](N)c4ccccc4)ccc3F)cn2c1 [Compound 84]
EC50 [2, 7]: > 25 µM
EC50 [3, 8]: 9.91 µM
EC50 [4, 9]: 8.62 µM

Cc1nc(C)c(C(=O)Nc2ccc(F)c(-c3cn4cc(NC(=O)c5ccc(F)cn5)cnc4n3)c2)o1 [Compound 187]
EC50 [2, 7]: 0.031 µM
EC50 [3, 8]: > 50 µM
EC50 [4, 9]: 0.142 µM

CC(C)OC(=O)Nc1cnc2nc(-c3cc(NC(=O)N4CC5(COC5)C4)ccc3F)cn2c1 [Compound 294]
EC50 [2, 7]: > 25 µM
EC50 [3, 8]: > 44.9 µM
EC50 [4, 9]: > 20 µM
